# Measured values from patent EP4076432B1, “COMPOSITION AND METHOD FOR THE PREVENTION AND TREATMENT OF OBESITY” (Vector Vitale IP LLC, priority 2019, dated 2021).
# “And” between values parts separate entries of the source, which are not always exact repeats. Identical values can stand only once. “Also recorded” adds a separate entry of the source.
# Assays:
# [1] = Glucose tolerance test; format: in vivo, rats; design: Glucose tolerance test, 0 min (1 h after effector administration): unit not given here; conditions: for glucose levels in the glucose tolerance test: compared with the control group
# Description: 5 animals were used within the same experimental group.
# [2] = Anthropometric values, amount and calorie content of food in high-fat diet induced obesity model; conditions: zinc aspartate 4.5 mg/animal intragastrically every third day; for BMI (g/cm^2) / Weight gain as of the end of the experiment (%): week 10
# Description: White non-pedigree rats with an initial weight of 195-205±10 g were used in the experiment.
# Before the start of the experiment, animals were maintained on a standard diet of the vivarium. To induce obesity in experimental animals, they were fed high-fat diet which consisted of standard feed (60%), lard (10%), chicken eggs (10%), sucrose (9%), peanuts (5%), dry milk (5%) and sunflower oil (1%) (1%) (see X. H. Shen et al., Exp. Biol. and Med. 235: 47-51 (2010)).
# Animals in all groups were weighed once a week after an overnight fast. The amount of feed to be consumed by the animals was determined daily. At the end of a 10-week period of the development of obesity models, 24 hours after the last administration of the zinc isotope solution, animals were removed from their cages and decapitated.
# The body mass index (BMI) (the ratio of body weight (g) to the square of body length (cm^2)) was calculated at the end of the experiment.
# Animals with an initial weight of 195-205±10 g maintained on the standard diet of the vivarium before performing obesity models were used in the experiments.
# Animals in all groups were weighed once a week after an overnight fast. The amount of feed to be consumed by the animals was determined daily.
# [3] = Intraperitoneal administration of zinc preparations to intact rats (insulin, superoxide dismutase, islets of Langerhans, metals, body weight); format: in vivo; conditions: 7 injections; for accumulation of zinc in the kidney tissues / accumulation of zinc in the liver tissues: day 1 and day 7 after withdrawal
# Experimental: The current dose was calculated by zinc.
# The rat serum was prepared from whole blood.
# The total kidney and liver homogenates were centrifuged at 600 g for 15 minutes.
# The optical density was measured at 492 nm.
# [4] = test system: products of oxidative modification of proteins; experiment: Serum levels of products of oxidative modification of proteins in obesity model; format: in vivo; conditions: DIO rats (high-fat diet), zinc aspartate 4.5 mg/animal intragastrically every third day, week 10
# Experimental: (§1) Animal serum was prepared from whole blood. […] Samples were centrifuged for 15 min at 2500 g.
# Proteins were precipitated by adding a 20% TCA solution.
# [5] = test system: islets of Langerhans; experiment: Morpho-functional analysis of pancreas in obesity model; format: in vivo, rats; conditions: zinc aspartate 4.5 mg/animal intragastrically every third day
# Description: After fixation, the pieces were rinsed in tap water. Then the material was dehydrated.
# Dried preparations were stained with hematoxylin and eosin.
# [6] = test system: central serotonergic system (brain); experiment: Indicators of the central serotonergic system (brain) in obesity model; format: in vivo, rats; conditions: zinc aspartate 4.5 mg/animal intragastrically every third day, week 10
# Description: The animal's head was separated from the body and the skull was carefully cut. The brain was carefully lifted with a scalpel from the bony vault, all cranial nerves were amputated and the brain was removed from the skull. The brain was divided into two parts with a longitudinal incision made between the hemispheres.
# (§2) The tissue : buffer ratio was 1:10.
# (§3) The samples were reprecipitated by centrifugation.
# (§4) University. Medicine. - 2000. - 1, No. 494. - P. 40-43.
# (§5) The supernatant was used in further studies.
# [7] = test system: serotonergic system (serum); experiment: Serum tryptophan, serotonin and monoamine oxidase activity in obesity model; format: in vivo, rats; conditions: zinc aspartate 4.5 mg/animal intragastrically every third day, week 10
# Experimental: as §1, §3, §4
# [8] = test system: pro-inflammatory (IL-1, IL-6, IL-12, IFN-γ) and anti-inflammatory (IL-4, IL-10, TGF) cytokines; experiment: Serum cytokine profile in obesity model (immunoenzyme method); format: in vivo, rats; conditions: zinc aspartate 4.5 mg/animal intragastrically every third day
# Experimental: as §1
# [9] = test system: superoxide dismutase; experiment: Serum superoxide dismutase activity in obesity model; format: in vivo; conditions: DIO rats (high-fat diet), zinc aspartate 4.5 mg/animal intragastrically every third day, week 10
# Experimental: To measure superoxide dismutase activity, a method based on the ability of this enzyme to inhibit auto-oxidation of adrenaline was used.
# Serum aliquots were added to microplate wells containing 0.2M bicarbonate buffer, pH 10. The reaction was initiated by adding 0.1% adrenaline solution in each well. A relevant volume of buffer was added to the "blank" wells to which no test sample was added. The optical density was measured at a wavelength of 347 nm using a µQuant microplate spectrophotometer (BioTek Instruments) at the 4th and 8th minute after adrenaline was added to the wells. The enzyme activity was expressed in relative units/min/mg.
# [10] = test system: peripheral serotonergic system (duodenum); experiment: Indicators of the peripheral serotonergic system (duodenum) in obesity model; format: in vivo, rats; conditions: zinc aspartate 4.5 mg/animal intragastrically every third day, week 10
# Description: as §2
# The samples were reprecipitated by centrifugation. […]
# as §5
# [11] = test system: pro-inflammatory (IL-1, IL-6, IL-12, IFN-γ) and anti-inflammatory (IL-4, IL-10, TGF) cytokines; experiment: Cytokine profile in adipose tissue in obesity model (immunoenzyme method); format: in vivo, rats; conditions: zinc aspartate 4.5 mg/animal intragastrically every third day, week 10
# Experimental: Adipose tissue was crushed using cold scissors then transferred to a homogenizer with a loose-fitting Teflon pestle. […] Primary homogenate thus obtained was centrifuged at 600 g for 15 minutes. The supernatant was carefully collected and re-centrifuged at 15,000 g for 15 minutes. The supernatant was then frozen and stored at -80°C until the experiments.
# The antigen solution, previously diluted with 0.1 M NaHCO3 buffer, pH 9.6, to a concentration of 10 µg/ml, was incubated in the plate wells for 12 hours at 4°C. Unbound material was removed by washing the wells three times with TBS buffer, first with 0.05% Tween-20, then without Tween-20. Non-specific binding sites were blocked by adding a solution of 5% skim milk or a solution of 1% bovine serum albumin to the plate wells and incubating them for 60 minutes at 37°C. After incubation, the wells were washed three times with TBS, first with 0.05% Tween-20, then without Tween-20. Primary antibodies were diluted in TBS in accordance with the manufacturer's instructions and incubated with the antigen for 60 min at 37°C. After washing with TBS working buffer, first with the addition of 0.05% Tween-20, then without Tween-20, the conjugate of secondary antibodies was added to the wells and incubated for 60 min at 37°C. As with the primary antibodies, secondary antibodies were diluted in TBS in accordance with the manufacturer's instructions. After the washing procedure, phenyldiamine dihydrochloride as substrate in 0.05M phosphate-citrate buffer was added to each well, followed by the addition of 0.3% hydrogen peroxide. After 10 minutes, the reaction time needed for development, 2.5 n H2SO4 was added.
# The absorbance at a wavelength of 492 nm was measured using a µQuant microplate spectrophotometer (BioTek Instruments).
# [12] = Serum lipids, alkaline phosphatase activity and albumin in obesity model; format: in vivo, rats; conditions: table is an image
# Description: Test kit // Pliva-Lachema Diagnostika. - 2008.
# The alkaline phosphatase activity was expressed in relative units.
# [13] = 3750 µg of zinc per 1 kg intraperitoneally every other day
# [14] = 3750 µg of zinc per 1 kg intraperitoneally
# [15] = rats having obesity (high-fat diet)
# [16] = DIO rats (high-fat diet), week 10
# [17] = control rats (standard diet), week 10
compound,measurement,setting,value
"N[C@@H](CC(=O)[O-])C(=O)[O-].[Zn+2] [^64Zne, zinc aspartate]",glucose levels in the glucose tolerance test,[1]; listed as zinc isotope,a drop in glucose concentration; also recorded: a decrease in glucose levels
same,glucose levels in the glucose tolerance test,[1]; listed as zinc isotope ^64Zn,a significant decrease in glucose levels
same,Amount of food consumed,[2]; DIO rats (high-fat diet),29 g/day
same,Calorie content of food,[2]; DIO rats (high-fat diet),823 kJ/day
same,BMI (g/cm^2),[2]; DIO rats (high-fat diet),0.65 g/cm^2
same,Weight gain as of the end of the experiment (%),[2]; DIO rats (high-fat diet),62%
same,Amount of food consumed,[2]; control rats (standard diet),32 g/day
same,Calorie content of food,[2]; control rats (standard diet),490 kJ/day
same,BMI (g/cm^2),[2]; control rats (standard diet),0.59 g/cm^2
same,Weight gain as of the end of the experiment (%),[2]; control rats (standard diet),59%
same,body weight of rats,[3]; [13],a significant increase in the body weight
same,serum insulin levels at day 7 after the withdrawal,[3]; [13],insulin levels in the blood of animals increased
same,serum insulin levels on the first day after the drug withdrawal,[3]; [13],slightly higher than in the group of intact animals
same,serum insulin levels at day 7 after the withdrawal,"[3]; 3750 µg of zinc per 1 kg intraperitoneally every other day, listed as zinc isotope",a significant increase in the insulin levels
same,accumulation of zinc in the kidney tissues,[3]; [14],significantly increased
same,accumulation of zinc in the liver tissues,[3]; [14],significantly increased
same,area of islets of Langerhans,"[3]; 3750 µg of zinc per 1 kg intraperitoneally, day 7 after the last administration, compared to control group and zinc acetate group",a significant increase in the islet area
same,"Aldehyde-dinitrophenyl-hydrazones, nmol/mg protein",[4],0.253±0.012 nmol/mg protein
same,"Ketone-dinitrophenyl-hydrazones, nmol/mg protein",[4],0.200±0.024 nmol/mg protein
same,"cross-sectional surface area of the islets of Langerhans, increase compared with the obesity group",[5]; [15],43%
same,"cross-sectional surface area of the islets of Langerhans, lower than the control value",[5]; [15],29%
same,"cross-sectional surface area of the islets of Langerhans, decrease compared with the control group",[5]; rats that ate a standard diet,39%
same,"Indoleamine dioxygenase activity, µmol/mg protein",[6]; DIO rats (high-fat diet),2007 ± 175 µmol/mg protein
same,"Monoamine oxidase activity, RU/mg protein",[6]; DIO rats (high-fat diet),0.99±0.08 RU/mg protein
same,Serotonin,[6]; DIO rats (high-fat diet),20.1 ± 3.21 µg/g
same,Tryptophan,[6]; DIO rats (high-fat diet),31.56 ± 2.14 µg/g
same,"Tryptophan decarboxylase activity, RU/mg protein",[6]; DIO rats (high-fat diet),1.86 ± 0.37 RU/mg protein
same,"Tryptophan hydroxylase activity, RU/mg protein",[6]; DIO rats (high-fat diet),286 ± 17 RU/mg protein
same,"Indoleamine dioxygenase activity, µmol/mg protein",[6]; control rats (standard diet),1178 ± 267 µmol/mg protein
same,"Monoamine oxidase activity, RU/mg protein",[6]; control rats (standard diet),0.91 ±0.06 RU/mg protein
same,Serotonin,[6]; control rats (standard diet),25.51 ± 2.71 µg/g
same,Tryptophan,[6]; control rats (standard diet),87.71 ± 3.41 µg/g
same,"Tryptophan decarboxylase activity, RU/mg protein",[6]; control rats (standard diet),1.63 ± 0.41 RU/mg protein
same,"Tryptophan hydroxylase activity, RU/mg protein",[6]; control rats (standard diet),291 ± 29 RU/mg protein
same,"Monoamine oxylase activity, RU/mg protein",[7]; DIO rats (high-fat diet),3.11±0.08 RU/mg protein
same,Serotonin,[7]; DIO rats (high-fat diet),6.33 ± 0.51 µg/g
same,Tryptophan,[7]; DIO rats (high-fat diet),66.65 ± 9.62 µg/g
same,"Monoamine oxylase activity, RU/mg protein",[7]; control rats (standard diet),2.52±0.03 RU/mg protein
same,Serotonin,[7]; control rats (standard diet),10.16 ± 0.62 µg/g
same,Tryptophan,[7]; control rats (standard diet),56.12 ± 7.58 µg/g
same,IFN-γ level,[8]; [16],4.1±1.2 RU/mg protein
same,IL-1 level,[8]; [16],4.2±0.4 RU/mg protein
same,IL-4 level,[8]; [16],5.6±1.6 RU/mg protein
same,IL-6 level,[8]; [16],5.1±0.4 RU/mg protein
same,IL-10 level,[8]; [16],6.8±1.1 # RU/mg protein
same,IL-12 level,[8]; [16],2.4±0.06 RU/mg protein
same,TGF level,[8]; [16],5.7±0.3 # RU/mg protein
same,TGF level,"[8]; DIO rats (high-fat diet), week 10, listed as Zinc",5.7±0.3 RU/mg protein
same,IFN-γ level,[8]; [17],4.6±0.6 RU/mg protein
same,IL-1 level,[8]; [17],3.5±0.7 RU/mg protein
same,IL-4 level,[8]; [17],4.6±0.8 RU/mg protein
same,IL-6 level,[8]; [17],4.3±0.2 RU/mg protein
same,IL-10 level,[8]; [17],4.1±0.5 RU/mg protein
same,IL-12 level,[8]; [17],0.3±0.04 RU/mg protein
same,TGF level,[8]; [17],4.1±0.4 RU/mg protein
same,"Superoxide dismutase activity, RU/ min per mg protein",[9],4.5±0.43 # RU/ min per mg protein
same,"Indoleamine dioxygenase activity, µmol/mg protein",[10]; DIO rats (high-fat diet),1768 ± 274 µmol/mg protein
same,"Monoamine oxidase activity, RU/mg protein",[10]; DIO rats (high-fat diet),1.72 ±0.03 RU/mg protein
same,Serotonin,[10]; DIO rats (high-fat diet),9.73 ± 0.82 µg/g
same,Tryptophan,[10]; DIO rats (high-fat diet),89.4 ± 8.99 µg/g
same,"Tryptophan decarboxylase activity, RU/mg protein",[10]; DIO rats (high-fat diet),0.78 ± 0.19 RU/mg protein
same,"Tryptophan hydroxylase activity, RU/mg protein",[10]; DIO rats (high-fat diet),253 ± 58 RU/mg protein
same,"Indoleamine dioxygenase activity, µmol/mg protein",[10]; control rats (standard diet),2150 ± 231 µmol/mg protein
same,"Monoamine oxidase activity, RU/mg protein",[10]; control rats (standard diet),3.82 ±0.07 RU/mg protein
same,Serotonin,[10]; control rats (standard diet),7.41 ± 0.54 µg/g
same,Tryptophan,[10]; control rats (standard diet),154.7 ± 13.6 µg/g
same,"Tryptophan decarboxylase activity, RU/mg protein",[10]; control rats (standard diet),0.79 ± 0.22 RU/mg protein
same,"Tryptophan hydroxylase activity, RU/mg protein",[10]; control rats (standard diet),375 ± 61 RU/mg protein
same,IFN-γ level,[11]; DIO rats (high-fat diet),4.9±0.8 RU/mg protein
same,IL-4 level,[11]; DIO rats (high-fat diet),5.1±1.2 RU/mg protein
same,IL-6 level,[11]; DIO rats (high-fat diet),6.1±0.7 RU/mg protein
same,IL-10 level,[11]; DIO rats (high-fat diet),5.8±0.8 RU/mg protein
same,IL-12 level,[11]; DIO rats (high-fat diet),1.99±0.01 RU/mg protein
same,TGF level,[11]; DIO rats (high-fat diet),5.2±0.9 RU/mg protein
same,IFN-γ level,[11]; control rats (standard diet),5.0±0.8 RU/mg protein
same,IL-1 level,[11]; control rats (standard diet),4.9±1.7 RU/mg protein
same,IL-4 level,[11]; control rats (standard diet),5.0±0.4 RU/mg protein
same,IL-6 level,[11]; control rats (standard diet),5.4±0.3 RU/mg protein
same,IL-10 level,[11]; control rats (standard diet),4.9±0.2 RU/mg protein
same,IL-12 level,[11]; control rats (standard diet),1.0±0.03 RU/mg protein
same,TGF level,[11]; control rats (standard diet),5.1±0.6 RU/mg protein
same,"levels of triglycerides, cholesterol and free fatty acids in the serum","[12]; animals fed a high-fat diet, zinc aspartate 2.25 mg/ml intragastrically in a volume of 2 ml",almost at the same level as in the control group
same,alkaline phosphatase activity,"[12]; serum, animals on high-fat diet treated intragastrically",higher than both in the group of diet-induced obesity models and in the control group
same,albumin values,"[12]; serum, obese animals treated intragastrically, versus untreated obese animals",had no effect on albumin values
"CC(=O)[O-].CC(=O)[O-].[Zn+2] [Zn acetate, Zn(CH3COO)2, reference compound]","Glucose tolerance test, 0 min (1 h after effector administration)","[1]; blood glucose, fast overnight, dose: 5 mg/kg in a volume of 2 ml, individual animals 1-5, 5 mg/kg",4.6 and 5.2 (2×) and 4.9 and 5.1
same,"Glucose tolerance test, 60 min (1 h after glucose administration)","[1]; blood glucose, glucose 3 g/kg body weight in 2 ml, dose: 5 mg/kg in a volume of 2 ml, individual animals 1-5, 5 mg/kg",7.2 (2×) and 6.9 and 7.3 and 6.8
same,glucose levels in the glucose tolerance test,[1],"glucose levels also dropped, though not so strongly"
same,serum insulin levels at day 7 after the withdrawal,[3]; [13],a drop in the insulin levels to the value of those of intact/control animals
same,serum insulin levels on the first day after the drug withdrawal,[3]; [13],a significant increase
same,accumulation of zinc in the kidney tissues,[3]; [14],significantly increased
same,accumulation of zinc in the liver tissues,[3]; [14],significantly increased
